From patent publication US20230014151A1, “COMBINATION ANTIVIRAL THERAPY FOR MEASLES” (The Trustees of Columbia University in the City of New York, priority 2019, published 2023)
Read-outs that look alike come from different tables or passages of the source. Square brackets hold non-standard residues; d marks the D form. Peptide text beside a SMILES is read from it. * marks the point of attachment. X4 = CC(C)CCC[C@@H](C)[C@H]1CC[C@H]2[C@@H]3CC=C4C[C@@H](OC(=O)CCOCCOCCOCCOCCNC(=O)C*)CC[C@]4(C)[C@H]3CC[C@]12C; X3 = CC(C)CCC[C@@H](C)[C@H]1CC[C@H]2[C@@H]3CC=C4C[C@@H](OC(=O)C*)CC[C@]4(C)[C@H]3CC[C@]12C; Cbz = O=C(OCc1ccccc1)*

Experiments:
[1] = target: measles virus (MeV) fusion protein F, wild type, expressed on cells (measles virus) (UniProt Q786F3); assay: cell-based or functional assay
[2] = target: viral glycoproteins (H and F); Nectin-4 (Measles virus, UniProt Q786F3); assay: beta-galactosidase complementation-based fusion assay, Nectin-4 target cells
[3] = IC50, Table 2 (salient peptides), Nectin-4 target cells
[4] = Nectin4 IC50, Table 3 (extended version)

Compound | IC50, beta-galactosidase complementation-based fusion assay, Nectin-4 target cells [1] | IC90, beta-galactosidase complementation-based fusion assay, Nectin-4 target cells [1] | IC90 [2] | IC90 ([2]; read-out: Nectin4 IC90) | IC50 [2, 4] | further results
FIP-chol (no GSGSG) (peptide) | > 1 µM | > 1 µM | – | – | – | –
FIP-HRC450-485-peg4-chol (no GSGSG) (peptide) | 0.707 µM | 0.825 µM | – | – | – | –
CC[C@H](C)[C@H](NC(=O)[C@H](C)NC(=O)[C@H](CC(N)=O)NC(=O)CNC(=O)[C@H](CC(C)C)NC(=O)[C@H](CC(N)=O)NC(=O)[C@@H](NC(=O)CNC(=O)[C@@H](NC(=O)[C@H](CC(=O)O)NC(=O)[C@H](CC(C)C)NC(=O)[C@H](CCCNC(=N)N)NC(=O)[C@H](CCC(=O)O)NC(=O)[C@H](CC(C)C)NC(=O)[C@H](CO)NC(=O)[C@@H](NC(=O)[C@@H]1CCCN1C(=O)[C@@H]1CCCN1C(C)=O)[C@@H](C)CC)C(C)C)[C@@H](C)O)C(=O)N[C@@H](C)C(=O)N[C@@H](CCCCN)C(=O)N[C@@H](CC(C)C)C(=O)N[C@@H](CCC(=O)O)C(=O)N[C@@H](CC(=O)O)C(=O)N[C@@H](C)C(=O)N[C@@H](CCCCN)C(=O)N[C@@H](CCC(=O)O)C(=O)N[C@@H](CC(C)C)C(=O)N[C@@H](CC(C)C)C(=O)N[C@@H](CCC(=O)O)C(=O)N[C@@H](CO)C(=O)N[C@@H](CO)C(=O)N[C@@H](CC(=O)O)C(=O)N[C@@H](CCC(N)=O)C(=O)N[C@H](C(=O)N[C@@H](CC(C)C)C(=O)N[C@@H](CCCNC(=N)N)C(=O)NCC(=O)N[C@@H](CO)C(=O)NCC(=O)N[C@@H](CO)C(=O)NCC(=O)N[C@@H](CSCC(=O)NCCOCCOCCOCCOCCC(=O)O[C@H]1CC[C@@]2(C)C(=CC[C@H]3[C@@H]4CC[C@H]([C@H](C)CCCC(C)C)[C@@]4(C)CC[C@@H]32)C1)C(=O)O)[C@@H](C)CC [HRC450-485-peg4-chol] | – | – | 0.856 ± 0.0786 µM | 0.856 ± 0.0786 µM | – | –
CC(C)CCC[C@@H](C)[C@H]1CC[C@H]2[C@@H]3CC=C4C[C@@H](OC(=O)CCOCCOCCOCCOCCNC(=O)CSC[C@H](NC(=O)CNC(=O)[C@H](CO)NC(=O)CNC(=O)[C@H](CO)NC(=O)CNC(=O)CNC(=O)[C@H](Cc5ccccc5)NC(=O)[C@@H](Cc5ccccc5)NC(=O)OCc5ccccc5)C(=O)O)CC[C@]4(C)[C@H]3CC[C@]12C [FIP-peg4-chol] (Cbz-[dF]FGGSGSGC(X4)-OH) | – | – | 7.615 ± 0.013 µM | 7.615 ± 0.013 µM | – | –
FIP-HRC450-485-chol (no GSGSG) (peptide) | 0.0859 µM | 0.54 µM | – | – | – | –
FIP-peg4-chol (no GSGSG) (peptide) | > 0.7 µM | > 1 µM | – | – | – | –
CC[C@H](C)[C@H](NC(=O)[C@H](C)NC(=O)[C@H](CC(N)=O)NC(=O)CNC(=O)[C@H](CC(C)C)NC(=O)[C@H](CC(N)=O)NC(=O)[C@@H](NC(=O)CNC(=O)[C@@H](NC(=O)[C@H](CC(=O)O)NC(=O)[C@H](CC(C)C)NC(=O)[C@H](CCCNC(=N)N)NC(=O)[C@H](CCC(=O)O)NC(=O)[C@H](CC(C)C)NC(=O)[C@H](CO)NC(=O)[C@@H](NC(=O)[C@@H]1CCCN1C(=O)[C@@H]1CCCN1C(C)=O)[C@@H](C)CC)C(C)C)[C@@H](C)O)C(=O)N[C@@H](C)C(=O)N[C@@H](CCCCN)C(=O)N[C@@H](CC(C)C)C(=O)N[C@@H](CCC(=O)O)C(=O)N[C@@H](CC(=O)O)C(=O)N[C@@H](C)C(=O)N[C@@H](CCCCN)C(=O)N[C@@H](CCC(=O)O)C(=O)N[C@@H](CC(C)C)C(=O)N[C@@H](CC(C)C)C(=O)N[C@@H](CCC(=O)O)C(=O)N[C@@H](CO)C(=O)N[C@@H](CO)C(=O)N[C@@H](CC(=O)O)C(=O)N[C@@H](CCC(N)=O)C(=O)N[C@H](C(=O)N[C@@H](CC(C)C)C(=O)N[C@@H](CCCNC(=N)N)C(=O)NCC(=O)N[C@@H](CO)C(=O)NCC(=O)N[C@@H](CO)C(=O)NCC(=O)N[C@@H](CS)C(=O)O)[C@@H](C)CC [HRC450-485] | – | – | > 10 µM | > 10 µM | > 10 µM | IC50 [2, 3]: > 10 µM
CC[C@H](C)[C@H](NC(=O)[C@H](C)NC(=O)[C@H](CC(N)=O)NC(=O)CNC(=O)[C@H](CC(C)C)NC(=O)[C@H](CC(N)=O)NC(=O)[C@@H](NC(=O)CNC(=O)[C@@H](NC(=O)[C@H](CC(=O)O)NC(=O)[C@H](CC(C)C)NC(=O)[C@H](CCCNC(=N)N)NC(=O)[C@H](CCC(=O)O)NC(=O)[C@H](CC(C)C)NC(=O)[C@H](CO)NC(=O)[C@@H](NC(=O)[C@@H]1CCCN1C(=O)[C@@H]1CCCN1C(C)=O)[C@@H](C)CC)C(C)C)[C@@H](C)O)C(=O)N[C@@H](C)C(=O)N[C@@H](CCCCN)C(=O)N[C@@H](CC(C)C)C(=O)N[C@@H](CCC(=O)O)C(=O)N[C@@H](CC(=O)O)C(=O)N[C@@H](C)C(=O)N[C@@H](CCCCN)C(=O)N[C@@H](CCC(=O)O)C(=O)N[C@@H](CC(C)C)C(=O)N[C@@H](CC(C)C)C(=O)N[C@@H](CCC(=O)O)C(=O)N[C@@H](CO)C(=O)N[C@@H](CO)C(=O)N[C@@H](CC(=O)O)C(=O)N[C@@H](CCC(N)=O)C(=O)N[C@H](C(=O)N[C@@H](CC(C)C)C(=O)N[C@@H](CCCNC(=N)N)C(=O)NCC(=O)N[C@@H](CO)C(=O)NCC(=O)N[C@@H](CO)C(=O)NCC(=O)N[C@@H](CSC1CC(=O)N(CCC(=O)NCCOCCOCCOCCOCCOCCOCCOCCOCCOCCOCCOCCNC(=O)CCN2C(=O)CC(SC[C@H](NC(=O)CNC(=O)[C@H](CO)NC(=O)CNC(=O)[C@H](CO)NC(=O)CNC(=O)[C@H](CCCNC(=N)N)NC(=O)[C@H](CC(C)C)NC(=O)[C@@H](NC(=O)[C@H](CCC(N)=O)NC(=O)[C@H](CC(=O)O)NC(=O)[C@H](CO)NC(=O)[C@H](CO)NC(=O)[C@H](CCC(=O)O)NC(=O)[C@H](CC(C)C)NC(=O)[C@H](CC(C)C)NC(=O)[C@H](CCC(=O)O)NC(=O)[C@H](CCCCN)NC(=O)[C@H](C)NC(=O)[C@H](CC(=O)O)NC(=O)[C@H](CCC(=O)O)NC(=O)[C@H](CC(C)C)NC(=O)[C@H](CCCCN)NC(=O)[C@H](C)NC(=O)[C@@H](NC(=O)[C@H](C)NC(=O)[C@H](CC(N)=O)NC(=O)CNC(=O)[C@H](CC(C)C)NC(=O)[C@H](CC(N)=O)NC(=O)[C@@H](NC(=O)CNC(=O)[C@@H](NC(=O)[C@H](CC(=O)O)NC(=O)[C@H](CC(C)C)NC(=O)[C@H](CCCNC(=N)N)NC(=O)[C@H](CCC(=O)O)NC(=O)[C@H](CC(C)C)NC(=O)[C@H](CO)NC(=O)[C@@H](NC(=O)[C@@H]3CCCN3C(=O)[C@@H]3CCCN3C(C)=O)[C@@H](C)CC)C(C)C)[C@@H](C)O)[C@@H](C)CC)[C@@H](C)CC)C(=O)O)C2=O)C1=O)C(=O)O)[C@@H](C)CC (stereo partly shown) [[HRC450-485]2-peg11] | – | – | > 10 µM | > 10 µM | – | IC50 [2]: > 4 µM; IC50 ([2]; read-out: Nectin4 IC50, Table 3 (extended version)): > 4 µM
CC[C@H](C)[C@H](NC(=O)[C@H](C)NC(=O)[C@H](CC(N)=O)NC(=O)CNC(=O)[C@H](CC(C)C)NC(=O)[C@H](CC(N)=O)NC(=O)[C@@H](NC(=O)CNC(=O)[C@@H](NC(=O)[C@H](CC(=O)O)NC(=O)[C@H](CC(C)C)NC(=O)[C@H](CCCNC(=N)N)NC(=O)[C@H](CCC(=O)O)NC(=O)[C@H](CC(C)C)NC(=O)[C@H](CO)NC(=O)[C@@H](NC(=O)[C@@H]1CCCN1C(=O)[C@@H]1CCCN1C(=O)CNC(=O)[C@H](CO)NC(=O)CNC(=O)[C@H](CO)NC(=O)CNC(=O)CNC(=O)[C@H](Cc1ccccc1)NC(=O)[C@@H](Cc1ccccc1)NC(=O)OCc1ccccc1)[C@@H](C)CC)C(C)C)[C@@H](C)O)C(=O)N[C@@H](C)C(=O)N[C@@H](CCCCN)C(=O)N[C@@H](CC(C)C)C(=O)N[C@@H](CCC(=O)O)C(=O)N[C@@H](CC(=O)O)C(=O)N[C@@H](C)C(=O)N[C@@H](CCCCN)C(=O)N[C@@H](CCC(=O)O)C(=O)N[C@@H](CC(C)C)C(=O)N[C@@H](CC(C)C)C(=O)N[C@@H](CCC(=O)O)C(=O)N[C@@H](CO)C(=O)N[C@@H](CO)C(=O)N[C@@H](CC(=O)O)C(=O)N[C@@H](CCC(N)=O)C(=O)N[C@H](C(=O)N[C@@H](CC(C)C)C(=O)N[C@@H](CCCNC(=N)N)C(=O)NCC(=O)N[C@@H](CO)C(=O)NCC(=O)N[C@@H](CO)C(=O)NCC(=O)N[C@@H](CS)C(=O)O)[C@@H](C)CC [FIP-HRC450-485] | – | – | > 10 µM | > 10 µM | 4.24 ± 0.812 µM | IC50 [2, 3]: 4.24 ± 0.812 µM
FIP (peptide) | 9.72 µM | > 10 µM | – | – | – | –
FIP (no GSGSG), Monomer N-Maleimide (peptide) | > 1 µM | > 1 µM | – | – | – | –
CC[C@H](C)[C@H](NC(=O)[C@H](C)NC(=O)[C@H](CC(N)=O)NC(=O)CNC(=O)[C@H](CC(C)C)NC(=O)[C@H](CC(N)=O)NC(=O)[C@@H](NC(=O)CNC(=O)[C@@H](NC(=O)[C@H](CC(=O)O)NC(=O)[C@H](CC(C)C)NC(=O)[C@H](CCCNC(=N)N)NC(=O)[C@H](CCC(=O)O)NC(=O)[C@H](CC(C)C)NC(=O)[C@H](CO)NC(=O)[C@@H](NC(=O)[C@@H]1CCCN1C(=O)[C@@H]1CCCN1C(=O)CNC(=O)[C@H](CO)NC(=O)CNC(=O)[C@H](CO)NC(=O)CNC(=O)CNC(=O)[C@H](Cc1ccccc1)NC(=O)[C@@H](Cc1ccccc1)NC(=O)OCc1ccccc1)[C@@H](C)CC)C(C)C)[C@@H](C)O)C(=O)N[C@@H](C)C(=O)N[C@@H](CCCCN)C(=O)N[C@@H](CC(C)C)C(=O)N[C@@H](CCC(=O)O)C(=O)N[C@@H](CC(=O)O)C(=O)N[C@@H](C)C(=O)N[C@@H](CCCCN)C(=O)N[C@@H](CCC(=O)O)C(=O)N[C@@H](CC(C)C)C(=O)N[C@@H](CC(C)C)C(=O)N[C@@H](CCC(=O)O)C(=O)N[C@@H](CO)C(=O)N[C@@H](CO)C(=O)N[C@@H](CC(=O)O)C(=O)N[C@@H](CCC(N)=O)C(=O)N[C@H](C(=O)N[C@@H](CC(C)C)C(=O)N[C@@H](CCCNC(=N)N)C(=O)N[C@@H](CS)C(=O)O)[C@@H](C)CC [FIP-HRC450-485 (no GSGSG)] | – | – | – | 6.37 ± 4.18 µM | 2.77 ± 1.64 µM | –
CC(C)CCC[C@@H](C)[C@H]1CC[C@H]2[C@@H]3CC=C4C[C@@H](OC(=O)CSC[C@H](NC(=O)CNC(=O)[C@H](CO)NC(=O)CNC(=O)[C@H](CO)NC(=O)CNC(=O)CNC(=O)[C@H](Cc5ccccc5)NC(=O)[C@@H](Cc5ccccc5)NC(=O)OCc5ccccc5)C(=O)O)CC[C@]4(C)[C@H]3CC[C@]12C [FIP-chol] (Cbz-[dF]FGGSGSGC(X3)-OH) | – | – | 7.615 ± 0.013 µM | > 10 µM | > 10 µM | IC50 [2, 3]: 4 ± 1.08 µM
